The text below walks through data of ChEMBL document CHEMBL1132568, “Synthesis, pharmacological evaluation, and structure-activity relationship and quantitative structure-activity relationship studies on novel derivatives of 2,4-diamino-6,7-dimethoxyquinazoline alpha1-adrenoceptor antagonists” (J Med Chem, 1999).

Experiment [1] has as its target T1, Adrenergic receptor alpha-1 (Rattus norvegicus, UniProt P15823+P23944+P43140).
T1 sequence (P15823 whole entry): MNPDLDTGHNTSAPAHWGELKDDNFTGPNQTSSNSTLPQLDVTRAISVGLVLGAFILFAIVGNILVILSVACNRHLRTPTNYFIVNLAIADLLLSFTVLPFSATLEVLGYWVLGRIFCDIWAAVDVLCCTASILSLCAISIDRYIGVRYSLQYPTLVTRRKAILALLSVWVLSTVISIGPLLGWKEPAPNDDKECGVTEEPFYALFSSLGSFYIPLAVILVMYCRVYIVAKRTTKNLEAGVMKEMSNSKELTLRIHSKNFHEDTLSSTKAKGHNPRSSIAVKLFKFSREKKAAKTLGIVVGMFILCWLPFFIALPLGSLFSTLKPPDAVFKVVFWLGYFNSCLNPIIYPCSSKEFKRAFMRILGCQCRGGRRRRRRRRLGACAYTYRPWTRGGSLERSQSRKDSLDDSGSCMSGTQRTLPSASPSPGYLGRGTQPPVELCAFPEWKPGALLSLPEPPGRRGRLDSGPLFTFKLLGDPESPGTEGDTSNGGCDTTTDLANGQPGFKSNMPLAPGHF
T1 sequence (P23944 whole entry): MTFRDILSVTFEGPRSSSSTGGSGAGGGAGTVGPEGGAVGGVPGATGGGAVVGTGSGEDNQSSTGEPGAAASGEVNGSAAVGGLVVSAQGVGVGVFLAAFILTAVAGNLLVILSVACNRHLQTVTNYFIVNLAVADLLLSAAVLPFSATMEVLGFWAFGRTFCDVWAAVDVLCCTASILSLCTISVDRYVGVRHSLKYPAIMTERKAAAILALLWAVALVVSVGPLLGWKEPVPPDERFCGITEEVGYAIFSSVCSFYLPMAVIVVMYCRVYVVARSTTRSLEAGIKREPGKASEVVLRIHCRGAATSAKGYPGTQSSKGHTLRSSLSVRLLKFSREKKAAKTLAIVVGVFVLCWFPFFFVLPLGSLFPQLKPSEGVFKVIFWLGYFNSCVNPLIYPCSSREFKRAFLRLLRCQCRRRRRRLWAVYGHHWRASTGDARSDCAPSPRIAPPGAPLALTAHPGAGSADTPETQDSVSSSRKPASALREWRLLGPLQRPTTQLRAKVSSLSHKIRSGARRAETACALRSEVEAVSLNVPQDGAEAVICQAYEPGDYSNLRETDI
T1 sequence (P43140 whole entry): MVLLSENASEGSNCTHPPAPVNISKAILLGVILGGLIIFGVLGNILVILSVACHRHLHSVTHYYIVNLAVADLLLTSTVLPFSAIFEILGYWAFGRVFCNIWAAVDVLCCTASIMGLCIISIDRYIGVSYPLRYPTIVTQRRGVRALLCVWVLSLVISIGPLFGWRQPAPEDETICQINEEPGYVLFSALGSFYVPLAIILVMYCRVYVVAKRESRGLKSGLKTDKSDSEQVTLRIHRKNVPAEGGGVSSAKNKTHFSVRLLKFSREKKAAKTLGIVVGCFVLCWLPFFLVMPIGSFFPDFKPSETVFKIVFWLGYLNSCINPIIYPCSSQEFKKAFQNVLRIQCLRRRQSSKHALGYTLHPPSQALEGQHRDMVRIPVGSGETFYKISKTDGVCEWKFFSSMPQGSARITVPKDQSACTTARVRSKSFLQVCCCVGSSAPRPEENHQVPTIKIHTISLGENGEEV
As to the kind of experiment: Inhibition of Alpha-1 adrenergic receptor in rat cortex membrane. The class given is cell membranes.

The target in another experiment is D(2) dopamine receptor (Rattus norvegicus, UniProt P61169). As to the kind of experiment: Inhibitory concentration against Dopamine receptor D2 (Inactive at >1000 nM concentration).
Sequence of D(2) dopamine receptor (P61169 whole entry): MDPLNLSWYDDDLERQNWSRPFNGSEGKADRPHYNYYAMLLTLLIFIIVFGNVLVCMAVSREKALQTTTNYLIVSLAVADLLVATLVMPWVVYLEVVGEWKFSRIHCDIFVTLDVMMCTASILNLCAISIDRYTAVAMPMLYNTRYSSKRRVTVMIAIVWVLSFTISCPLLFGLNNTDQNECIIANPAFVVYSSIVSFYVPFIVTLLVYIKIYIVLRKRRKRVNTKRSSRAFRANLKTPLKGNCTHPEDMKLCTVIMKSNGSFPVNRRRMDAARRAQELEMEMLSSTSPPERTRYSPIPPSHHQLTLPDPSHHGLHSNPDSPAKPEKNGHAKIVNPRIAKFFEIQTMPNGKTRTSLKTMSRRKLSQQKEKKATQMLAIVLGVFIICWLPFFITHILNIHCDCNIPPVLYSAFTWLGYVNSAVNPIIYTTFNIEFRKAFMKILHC
In experiment [2] the target is T2, Adrenergic receptor alpha-2 (Rattus norvegicus, UniProt P22086+P19328+P22909).
T2 sequence (P22086 whole entry): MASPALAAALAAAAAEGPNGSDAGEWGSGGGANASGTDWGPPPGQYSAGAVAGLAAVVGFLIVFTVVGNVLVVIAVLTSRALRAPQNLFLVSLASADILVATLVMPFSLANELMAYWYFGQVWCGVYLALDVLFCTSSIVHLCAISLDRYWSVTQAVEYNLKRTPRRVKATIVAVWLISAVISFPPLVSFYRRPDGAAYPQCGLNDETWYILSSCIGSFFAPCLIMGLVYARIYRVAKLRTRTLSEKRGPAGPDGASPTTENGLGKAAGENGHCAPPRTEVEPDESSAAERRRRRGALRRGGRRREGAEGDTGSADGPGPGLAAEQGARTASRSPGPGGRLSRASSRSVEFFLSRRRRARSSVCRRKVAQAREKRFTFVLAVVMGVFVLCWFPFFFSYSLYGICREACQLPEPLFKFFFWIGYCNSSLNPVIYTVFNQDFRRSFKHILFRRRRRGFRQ
T2 sequence (P19328 whole entry): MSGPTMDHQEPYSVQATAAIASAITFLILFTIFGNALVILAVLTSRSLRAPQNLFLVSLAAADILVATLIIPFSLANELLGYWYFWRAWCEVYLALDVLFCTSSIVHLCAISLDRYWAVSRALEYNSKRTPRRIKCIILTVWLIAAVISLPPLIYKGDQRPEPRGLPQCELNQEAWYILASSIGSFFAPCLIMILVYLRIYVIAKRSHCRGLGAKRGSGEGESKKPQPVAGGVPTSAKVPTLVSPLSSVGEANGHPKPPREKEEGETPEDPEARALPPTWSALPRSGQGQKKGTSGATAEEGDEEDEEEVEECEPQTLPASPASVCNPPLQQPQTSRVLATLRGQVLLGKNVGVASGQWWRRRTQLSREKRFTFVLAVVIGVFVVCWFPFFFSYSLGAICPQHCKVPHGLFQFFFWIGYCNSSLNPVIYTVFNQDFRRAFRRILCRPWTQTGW
T2 sequence (P22909 whole entry): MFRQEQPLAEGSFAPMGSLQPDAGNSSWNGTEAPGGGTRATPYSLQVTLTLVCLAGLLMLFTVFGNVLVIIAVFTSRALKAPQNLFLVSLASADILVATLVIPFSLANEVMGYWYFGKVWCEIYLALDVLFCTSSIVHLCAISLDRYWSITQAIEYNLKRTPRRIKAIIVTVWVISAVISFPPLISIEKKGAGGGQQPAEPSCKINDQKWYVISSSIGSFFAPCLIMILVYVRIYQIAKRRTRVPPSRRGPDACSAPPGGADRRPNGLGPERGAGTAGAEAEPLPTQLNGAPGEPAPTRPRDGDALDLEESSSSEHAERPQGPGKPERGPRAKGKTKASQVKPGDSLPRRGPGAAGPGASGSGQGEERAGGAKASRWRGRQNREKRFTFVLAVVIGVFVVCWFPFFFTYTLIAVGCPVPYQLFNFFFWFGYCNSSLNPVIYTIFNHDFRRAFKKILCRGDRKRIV
The experiment is described as follows: Inhibitory concentration against Alpha-2 adrenergic receptor. The class given is protein assay.

Experiment [3] addresses 5-hydroxytryptamine receptor 2A (Rattus norvegicus, UniProt P14842). The experiment is described as follows: Inhibitory concentration against 5-hydroxytryptamine 2A receptor (Inactive at >1000 nM concentration).
Experiment [4] concerns the target T3, 5-hydroxytryptamine receptor 1A (Rattus norvegicus, UniProt P19327).
T3 sequence (P19327 whole entry): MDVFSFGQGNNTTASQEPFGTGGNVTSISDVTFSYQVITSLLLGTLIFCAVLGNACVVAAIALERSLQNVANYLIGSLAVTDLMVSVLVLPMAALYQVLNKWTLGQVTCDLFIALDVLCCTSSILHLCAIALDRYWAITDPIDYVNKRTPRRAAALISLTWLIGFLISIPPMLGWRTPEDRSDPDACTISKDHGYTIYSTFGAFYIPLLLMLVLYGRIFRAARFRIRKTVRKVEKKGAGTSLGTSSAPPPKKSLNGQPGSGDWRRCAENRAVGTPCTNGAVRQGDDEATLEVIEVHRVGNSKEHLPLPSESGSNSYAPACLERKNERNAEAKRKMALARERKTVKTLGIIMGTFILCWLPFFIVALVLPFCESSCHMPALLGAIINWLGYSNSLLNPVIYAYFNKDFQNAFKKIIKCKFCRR
The experiment is described as follows: Inhibitory concentration against 5-hydroxytryptamine 1A receptor (Inactive at >1000 nM concentration).

Sequence of 5-hydroxytryptamine receptor 2A (P14842 whole entry): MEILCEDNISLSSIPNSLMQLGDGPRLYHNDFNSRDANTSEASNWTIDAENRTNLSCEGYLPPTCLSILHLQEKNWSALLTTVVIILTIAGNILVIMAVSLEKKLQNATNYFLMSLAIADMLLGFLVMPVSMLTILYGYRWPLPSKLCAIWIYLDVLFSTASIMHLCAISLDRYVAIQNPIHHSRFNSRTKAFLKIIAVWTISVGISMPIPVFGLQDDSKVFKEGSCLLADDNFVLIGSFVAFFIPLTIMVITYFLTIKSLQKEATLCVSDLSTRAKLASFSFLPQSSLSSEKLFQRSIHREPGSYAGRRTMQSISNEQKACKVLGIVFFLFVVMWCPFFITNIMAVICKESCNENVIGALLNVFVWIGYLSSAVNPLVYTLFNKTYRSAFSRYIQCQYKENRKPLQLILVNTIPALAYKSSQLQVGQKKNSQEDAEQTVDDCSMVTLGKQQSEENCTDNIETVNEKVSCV

As to `COc1cc2nc(N3CCN(C(=O)C(C)(C)Oc4c(OC)cccc4C(C)C)CC3)nc(N)c2cc1OC`, the IC50 in experiment [1] was 1180 nM; at D(2) dopamine receptor it was more than 1000 nM; in experiment [2] it was more than 1000 nM; in experiment [3], more than 1000 nM; in experiment [4] it was more than 1000 nM.

As for `COc1cc2nc(N3CCc4ccccc4C3)nc(N)c2cc1OC`, the IC50 in experiment [1] is 4.1 nM; at D(2) dopamine receptor it was more than 1000 nM; in experiment [2], more than 1000 nM; in experiment [3], more than 1000 nM; in experiment [4] it was more than 1000 nM.

Regarding `COc1cc2nc(N3CCN(C(=O)C(c4ccccc4)c4ccccc4)CC3)nc(N)c2cc1OC`, the IC50 in experiment [1] is 3.2 nM; against D(2) dopamine receptor, more than 1000 nM; in experiment [2], more than 1000 nM; in experiment [3], more than 1000 nM; in experiment [4], more than 1000 nM.

In the case of `COc1cc2nc(N3CCNCC3)nc(N)c2cc1OC`, the half-inhibitory concentration (IC50) in experiment [1] was 340 nM; on D(2) dopamine receptor, more than 1000 nM; in experiment [2] it was more than 1000 nM; in experiment [3] it was more than 1000 nM; in experiment [4], more than 1000 nM.

As to `COc1cc2nc(N[C@H](C)Cc3ccc(OC)c(S(N)(=O)=O)c3)nc(N)c2cc1OC`, the IC50 is 3140 nM in experiment [1]; more than 1000 nM on D(2) dopamine receptor; more than 1000 nM in experiment [2]; more than 1000 nM in experiment [3]; more than 1000 nM in experiment [4].

Consider `COc1cc2nc(N3CCN(C(C)=O)CC3)nc(N)c2cc1OC`, for which the IC50 is 45 nM in experiment [1]; more than 1000 nM against D(2) dopamine receptor; more than 1000 nM in experiment [2]; more than 1000 nM in experiment [3]; more than 1000 nM in experiment [4].

`COc1cc2nc(N3CCC(c4ccccc4)(c4ccccc4)CC3)nc(N)c2cc1OC`: the IC50 is 259 nM in experiment [1]; more than 1000 nM at D(2) dopamine receptor; more than 1000 nM in experiment [2]; more than 1000 nM in experiment [3]; more than 1000 nM in experiment [4].

Take `COc1cc2nc(N3CCN(Cc4ccccc4)CC3)nc(N)c2cc1OC`: the IC50 was 32 nM in experiment [1]; more than 1000 nM on D(2) dopamine receptor; more than 1000 nM in experiment [2]; more than 1000 nM in experiment [3]; more than 1000 nM in experiment [4].

Consider `COc1cc2nc(N3CCN(C(=O)c4ccccc4)CC3)nc(N)c2cc1OC`, for which the IC50 in experiment [1] is 4.6 nM; at D(2) dopamine receptor, more than 1000 nM; in experiment [2] it was more than 1000 nM; in experiment [3], more than 1000 nM; in experiment [4], more than 1000 nM.

For `COc1cc2nc(N3CCN(C(C)=O)CC3)nc(NC(C)=O)c2cc1OC`, the IC50 in experiment [1] is 5080 nM; on D(2) dopamine receptor it was more than 1000 nM; in experiment [2] it was more than 1000 nM; in experiment [3] it was more than 1000 nM; in experiment [4] it was more than 1000 nM.

For `COc1cc2nc(N3CCN(OCc4ccccc4)CC3)nc(N)c2cc1OC`, the IC50 in experiment [1] was 111 nM; at D(2) dopamine receptor, more than 1000 nM; in experiment [2], more than 1000 nM; in experiment [3], more than 1000 nM; in experiment [4], more than 1000 nM.

For the compound `COc1cc2c(cc1OC)CN(c1nc(N)c3cc(OC)c(OC)cc3n1)CC2`, the IC50 in experiment [1] was 0.2 nM; on D(2) dopamine receptor, more than 1000 nM; in experiment [2], more than 1000 nM; in experiment [3] it was more than 1000 nM; in experiment [4], more than 1000 nM.

With `COc1cc2nc(N(C)CCC(c3ccccc3)c3ccccc3)nc(N)c2cc1OC`, the IC50 in experiment [1] is 85 nM; against D(2) dopamine receptor, more than 1000 nM; in experiment [2] it was more than 1000 nM; in experiment [3], more than 1000 nM; in experiment [4], more than 1000 nM.

On to `COc1cc2nc(N3CCc4c(ccc5ccccc45)C3)nc(N)c2cc1OC`, for which the IC50 in experiment [1] was 1.6 nM; against D(2) dopamine receptor it was more than 1000 nM; in experiment [2] it was more than 1000 nM; in experiment [3] it was more than 1000 nM; in experiment [4], more than 1000 nM.

In the case of `COc1cc2nc(N3CC[N+]([O-])(Cc4ccccc4)CC3)nc(N)c2cc1OC`, the IC50 (in experiment [1]; on D(2) dopamine receptor; in experiment [2]; in experiment [3]; in experiment [4]) was more than 1000 nM in each case.

Turning to `COc1cc2nc(N3CCN(C(=O)C(C)(C)C)CC3)nc(N)c2cc1OC`, the IC50 was 340 nM in experiment [1]; more than 1000 nM against D(2) dopamine receptor; more than 1000 nM in experiment [2]; more than 1000 nM in experiment [3]; more than 1000 nM in experiment [4].

`COc1cc2nc(N3CCN(C(=O)C(C)(C)Oc4ccccc4OC)CC3)nc(N)c2cc1OC`: the IC50 in experiment [1] was 49 nM; against D(2) dopamine receptor it was more than 1000 nM; in experiment [2], more than 1000 nM; in experiment [3] it was more than 1000 nM; in experiment [4] it was more than 1000 nM.
